Assay results as given in US20170029355A1, “LABILE ESTERS OF AGROCHEMICALS FOR CONTROLLED RELEASE AND REDUCTION OF OFF-SITE MOVEMENT” (Monsanto Technology LLC, priority 2011, published 2017).

Legend:
[1] = system: velvetleaf; assay: Greenhouse post-emergent control of velvetleaf by emulsifiable concentrates (Example 29); format: in vivo; details: three weeks after treatment; for % Control of velvetleaf, 140 g/ha: 140 g dicamba equivalent per hectare; for % Control of velvetleaf, 280 g/ha: 280 g dicamba equivalent per hectare; for % Control of velvetleaf, 420 g/ha: 420 g dicamba equivalent per hectare; for % Control of velvetleaf, 560 g/ha: 560 g dicamba equivalent per hectare
Method: (§1) The efficacy of some photo-labile ester formulations from Example 28 for post-emergent control of velvetleaf was tested in the greenhouse. All formulations were tested at rates of 140, 280, 420, and 560 g dicamba equivalent per hectare rates and compared to the diglycolamine salt of dicamba (CLARITY®) at the same rates and untreated control plants. The velvetleaf plants were 10-15 cm in height at the time of spraying. Percent control was evaluated three weeks after treatment.

[2] = system: velvetleaf; assay: Greenhouse post-emergent control of velvetleaf by emulsifiable concentrates (Example 30); format: in vivo
Method: as §1
The methodology of Example 29 was used to evaluate the efficacy of several photo-labile esters of dicamba for post-emergent control of velvetleaf as emulsifiable concentrate formulations described in Example 28.

[3] = system: glyphosate-tolerant, dicamba-sensitive soy plants; assay: Humidome volatility injury to dicamba-sensitive plants (Example 31); details: in vivo
Excerpt: In this case, the diglycolamine salt of dicamba (CLARITY®) was used for comparison.
Dicamba photo-labile ester formulations from Example 28 were mixed with a commercial glyphosate formulation (ROUNDUP POWERMAX®) and diluted to provide a solution with a 0.5% dicamba equivalent concentrate of the ester (or dicamba diglycolamine salt) and 1.5% concentrate of glyphosate. The mixtures were sprayed at a 10 gallon per acre (93.5 liters per hectare) rate on soil in a plastic container (“humidome”) with a transparent lid. One soil container was sprayed with water as a control. Four glyphosate-tolerant, dicamba-sensitive soy plants between V2 and V3 stage were immediately placed on the sprayed soil and the domes attached to the trays with binder clips. The soy plants were in pots placed directly on the soil but with aluminum foil wrapped around the bottom to prevent uptake of dicamba or dicamba esters through the roots.
The closed containers were held for 24 hours in a growth chamber which was maintained at 35° C. with 40% relative humidity. The plants were then removed and grown in a greenhouse for three weeks. At this time plant injury and growth stage were assessed compared to the control treated with water only.

[4] = system: soybeans; assay: Humidome volatility injury, ester 32a emulsifiable concentrate (Example 32); details: in vivo
Excerpt: […] The mixtures were sprayed at a 10 gallon per acre (93.5 liters per hectare) rate on soil in a plastic container (“humidome”) with a transparent lid. One soil container was sprayed with water as a control. Four glyphosate-tolerant, dicamba-sensitive soy plants between V2 and V3 stage were immediately placed on the sprayed soil and the domes attached to the trays with binder clips. The soy plants were in pots placed directly on the soil but with aluminum foil wrapped around the bottom to prevent uptake of dicamba or dicamba esters through the roots.
The closed containers were held for 24 hours in a growth chamber which was maintained at 35° C. with 40% relative humidity. […] At this time plant injury and growth stage were assessed compared to the control treated with water only.

[5] = Field dicamba volatility, airborne dicamba collected by air samplers (Example 34); format: physicochemical; details: field plot, 0.5 lb/acre dicamba a.e. with ROUNDUP WEATHERMAX, airborne dicamba collected over 24 hours, maximum 86° F.
[6] = system: velvetleaf; assay: Greenhouse post-emergent control of velvetleaf by emulsifiable concentrates (Example 37); format: in vivo; details: greenhouse, Example 37
Procedure, shortened: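 Photo-labile dicamba ester emulsifiable concentrates sprayed post-emergence in the greenhouse on velvetleaf 10-15 cm tall at 140, 280, 420 and 560 g dicamba equivalent per hectare. Percent control scored three weeks after treatment.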

[7] = system: hemp sesbania; assay: Field testing of emulsifiable concentrates, post-emergent control (Example 38); format: in vivo; details: for % control, 280 g/ha, Hemp sesbania: 280 g dicamba acid equivalent per hectare; for % control, 280 g/ha, Hemp sesbania / % control, 420 g/ha, Hemp sesbania: 11 or 21 days after treatment; for % control, 420 g/ha, Hemp sesbania: 420 g dicamba acid equivalent per hectare
Excerpt: (§2) Four dicamba esters, 1a, 2, 9, and 13a, were formulated as emulsifiable concentrates for field testing. All formulations contained 5% each of a alkylbenzene sulfonate calcium salt (Huntsman NANSA EVM 62/H or Akzo Nobel WITCONATE P-1220 EH) and castor oil ethoxylate (Huntsman SURFONIC CO-54) as the emulsifiers and Aromatic 200 (Exxon) or monochlorobenzene (MCB) as the solvent.
(§3) The esters were compared to the diglycolamine salt of dicamba (CLARITY™) for post-emergent control of three broadleaf weeds: velvetleaf, morning glory, and hemp sesbania. Rates of 280 and 420 g dicamba acid equivalent per hectare were used. […] Evaluations were conducted at 11 or 21 days after treatment. Locations and timing were identical for all formulations tested.

[8] = system: morning glory; assay: as above; format: in vivo; details: for % control, 280 g/ha, Morning glory: 280 g dicamba acid equivalent per hectare; for % control, 280 g/ha, Morning glory / % control, 420 g/ha, Morning glory: 11 or 21 days after treatment; for % control, 420 g/ha, Morning glory: 420 g dicamba acid equivalent per hectare
Excerpt: as §2, §3

[9] = system: velvetleaf; assay: as above; format: in vivo; details: for % control, 280 g/ha, Velvetleaf: 280 g dicamba acid equivalent per hectare; for % control, 280 g/ha, Velvetleaf / % control, 420 g/ha, Velvetleaf: 11 or 21 days after treatment; for % control, 420 g/ha, Velvetleaf: 420 g dicamba acid equivalent per hectare
Excerpt: as §2, §3

[10] = system: Euphorbia species; assay: Field testing for post-emergent activity in the Southern Hemisphere (Example 39); format: in vivo; details: 9 as suspension concentrate, other esters as emulsifiable concentrates; for % control, 0.25 lb/ac (0.28 kg/hectare): 0.25 lb dicamba a.e. per acre; for % control, 0.50 lb/ac (0.56 kg/hectare): 0.50 lb dicamba a.e. per acre
Method: The primary weeds were Euphorbia species. Ester 9 was tested as a suspension concentrate using the formulation of Example 33 The other esters were tested as emulsifiable concentrates having the formulations shown in the table below. Akzo Nobel SPONTO EC 334 and SPONTO EC 336 along with SURFONIC CO-54 and […] (Huntsman) were used as emulsifiers and Aromatic 200 (A 200; Exxon) was used as the solvent. […] The diglycolamine salt of dicamba (CLARITYTM) was used as a comparator.

[11] = system: hemp sesbania; assay: Field testing of emulsifiable concentrates, post-emergent control (Example 40); format: in vivo
Method: (§4) Three dicamba esters, 30a, 32a, and 36a, were formulated as emulsifiable concentrates for field testing. All surfactants are commercial materials from Stepan.
(§5) The formulations were tested in the field. Locations and timing were identical for the three esters, but differed slightly for the diglycolamine control. The esters were compared to the diglycolamine salt of dicamba (CLARITY™) for post-emergent control of three broadleaf weeds: velvetleaf, morning glory, and hemp sesbania. Rates of 280 and 560 g dicamba acid equivalent per hectare were used.

[12] = system: morning glory; assay: as above; format: in vivo
Method: as §4, §5

[13] = system: velvetleaf; assay: as above; format: in vivo
Method: as §4, §5

[14] = In vitro dicamba photo-release from photo-labile dicamba esters, tetrahydrofuran solvent (Example 26); format: physicochemical
Method: This Example describes in vitro testing of dicamba photo-release by homogeneous solutions of photo-labile dicamba esters. The esters were dissolved in tetrahydrofuran (THF). Ester concentration was 0.1 mM. 25 ml of the solution was transferred to 22 mm tubes fabricated from graded seal quartz tubing with a 19/22 tapered seal at the top, which was closed with a tapered glass plug and secured with a plastic ring clamp. The solution was entirely below the quartz-to-glass transition, ensuring that the entire volume was exposed to the full spectrum.
The sealed tubes were placed in a Growth Chamber where they were exposed to simulated sunlight for 14 hours per day at 35° C. Dicamba concentrations in the solution were measured during the course of the photolysis.
A sample of the initial solution was reserved in a glass vial away from the light source and analyzed at the conclusion of the study, providing a measurement of the amount of dicamba present without illumination of the photolysis solution (the “dark control”).

[15] = Solubility of the esters (statements of the description); format: physicochemical; details: qualitative
[16] = Photolysis / cleavage of the esters to dicamba (statements of the description); format: physicochemical; details: qualitative
Excerpt: The efficacy of the photolabile esters can be assayed in vitro, or in greenhouse or field experiments. A useful in vitro assay for post-emergent activity involves photolysis of a dilute solution of the esters using simulated sunlight. This is conveniently achieved by photolysis of a solution of the ester in an organic solvent which is miscible with water and to which some water has been added. As described in the Examples, photolysis in acetonitrile or tetrahydrofuran containing 10% water by weight is effective. Low concentrations of the ester should be used so that the entire volume is exposed to sunlight. Since the maximum extinction coefficient of the typical esters above 220 nm is in the range of 1000-10,000 M^−1 cm^−1, a concentration of 0.1 mM is effective. Photolysis in a quartz tube exposed to simulated or actual sunlight is a typical protocol.

[17] = system: broadleaf weeds; assay: Control of broadleaf weeds by ester concentrates (statements of the description); format: in vivo; details: emulsifiable and suspension concentrates; Sesbania macrocarpa, morning glory, velvetleaf, Palmer amaranth, fat hen, sicklepod
[18] = 280 g dicamba acid equivalent per hectare
[19] = 560 g dicamba acid equivalent per hectare
[20] = 280 and 420 g dicamba acid equivalent per hectare

For `COc1c(Cl)ccc(Cl)c1C(=O)O.NCCOCCO` [Diglycolamine salt, diglycolamine salt of dicamba, reference compound], the “% Control of velvetleaf, 140 g/ha” value [1] was 44%, the “% Control of velvetleaf, 280 g/ha” value [1] was 63% and the “% Control of velvetleaf, 420 g/ha” value [1] was 68%. The “% Control of velvetleaf, 560 g/ha” value [1] was 83%, the “% Control of velvetleaf, 140 g/ha” value ([2]; 140 g/ha) was 54% and the “% Control of velvetleaf, 280 g/ha” value ([2]; 280 g/ha) was 86%. For the same compound, the “% Control of velvetleaf, 420 g/ha” value ([2]; 420 g/ha) was 96%, the “% Control of velvetleaf, 560 g/ha” value ([2]; 560 g/ha) was 96% and the “Growth Stage” value [3] was 6. The “average injury to soybeans” value [4] was 60%, the “average dicamba level from the five air samplers” value [5] was 11.1 ng/m^3 and the “% Control of velvetleaf, 140 g/ha” value ([6]; 140 g/ha) was 43.3%. For the same compound, the “% Control of velvetleaf, 280 g/ha” value ([6]; 280 g/ha) was 65.8%, the “% Control of velvetleaf, 420 g/ha” value ([6]; 420 g/ha) was 87.5% and the “% Control of velvetleaf, 560 g/ha” value ([6]; 560 g/ha) was 90.0%. For the same compound, the “% control, 280 g/ha, Hemp sesbania” value [7] was 81%, the “% control, 420 g/ha, Hemp sesbania” value [7] was 88% and the “% control, 280 g/ha, Morning glory” value [8] was 100%. The “% control, 420 g/ha, Morning glory” value [8] was 100%, the “% control, 280 g/ha, Velvetleaf” value [9] was 87% and the “% control, 420 g/ha, Velvetleaf” value [9] was 91%. The “% control, 0.25 lb/ac (0.28 kg/hectare)” value [10] was 53%, the “% control, 0.50 lb/ac (0.56 kg/hectare)” value [10] was 70% and the “% control 19 days after treatment, 280 g/ha, Hemp sesbania” value [11, 18] was 89 ± 5%. The “% control 19 days after treatment, 560 g/ha, Hemp sesbania” value [11, 19] was 96 ± 2%, the “% control 19 days after treatment, 280 g/ha, Morning glory” value [12, 18] was 89 ± 11% and the “% control 19 days after treatment, 560 g/ha, Morning glory” value [12, 19] was 94 ± 12%. The “% control 19 days after treatment, 280 g/ha, Velvetleaf” value [13, 18] was 78 ± 10% and the “% control 19 days after treatment, 560 g/ha, Velvetleaf” value [13, 19] was 91 ± 7%.
In the case of `COc1ccc(C(=O)COC(=O)c2c(Cl)ccc(Cl)c2OC)cc1` [Ester 9, 4-methoxyphenacyl methyl ester of dicamba], the “Dark Control % dicamba” value ([14]; THF, 0.1 mM ester, initial solution kept away from the light source, analyzed at conclusion of study) was 1%, the “Conversion to dicamba, 1 day” value ([14]; THF, 0.1 mM ester, simulated sunlight 14 hours per day, 35° C., 1 day) was 76% and the “Conversion to dicamba, 2 days” value ([14]; THF, 0.1 mM ester, simulated sunlight 14 hours per day, 35° C., 2 days) was 91%. The “Conversion to dicamba, 3 days” value ([14]; THF, 0.1 mM ester, simulated sunlight 14 hours per day, 35° C., 3 days) was 90%, the “Conversion to dicamba, 5 days” value ([14]; THF, 0.1 mM ester, simulated sunlight 14 hours per day, 35° C., 5 days) was 89% and the “Conversion to dicamba, 7 days” value ([14]; THF, 0.1 mM ester, simulated sunlight 14 hours per day, 35° C., 7 days) was 89%. The “photo-efficiency of dicamba generation” value ([14]; in vitro studies) was roughly 100%, the “% Control of velvetleaf, 140 g/ha” value [1] was 23% and the “% Control of velvetleaf, 280 g/ha” value [1] was 19%. For the same compound, the “% Control of velvetleaf, 420 g/ha” value [1] was 28%, the “% Control of velvetleaf, 560 g/ha” value [1] was 29% and the “post-emergent control of hemp sesbania compared with the dicamba salt, in words” value [7, 20] was “equivalent to the dicamba salt”. The “% control, 280 g/ha, Hemp sesbania” value [7] was 86%, the “% control, 420 g/ha, Hemp sesbania” value [7] was 93% and the “post-emergent control of morning glory compared with the dicamba salt, in words” value [8, 20] was “equivalent to the dicamba salt”. For the same compound, the “% control, 280 g/ha, Morning glory” value [8] was 98%, the “% control, 420 g/ha, Morning glory” value [8] was 100% and the “post-emergent control of velvetleaf compared with the dicamba salt, in words” value [9, 20] was “nearly equivalent to the dicamba salt”. The “% control, 280 g/ha, Velvetleaf” value [9] was 79%, the “% control, 420 g/ha, Velvetleaf” value [9] was 80% and the “% control, 0.25 lb/ac (0.28 kg/hectare)” value [10] was 54%. The “% control, 0.50 lb/ac (0.56 kg/hectare)” value [10] was 62%, the “solubility, in words” value [15] was “relatively insoluble” and the “photolysis / photo-release of dicamba, in words” value [16] was “efficient photo-release of 9 in a suspension concentrate formulation occurs over several weeks”. The “control of a number of broadleaf weeds in field testing, in words” value [17] was “proven effective”.
